Read-outs that look alike come from different tables or passages of the source.
Columns and labels:
in vitro = in vitro ADME
Procedure: The permeability of LMDS-1 and -2 was determined by a PAMPA-BBB assay. Firstly, 300 μl of LMDS-1 or -2 (1 μM) solution were added to the donor well (Millipore). Bupropion (a high permeability marker), piroxicam (a low permeability marker), and lucifer yellow (an integrity marker) (Sigma-Aldrich) were used as quality control (QC) compounds for comparison. The sandwich with aqueous donor on the bottom, artificial lipid membrane (PVDF filter coated with porcine polar brain lipid) in the middle, and aqueous acceptor (5% DMSO in PBS) on the top was assembled as stated. Each compound was tested in triplicate. After incubation for 18 h at the ambient temperature, the PAMPA sandwich plate was separated. The concentrations of test and QC compounds in the donor and acceptor wells were measured as stated, and the effective permeability coefficient (Pe) was computed.

[1] = DPPH free radical scavenging assay; format: biochemical; details: compounds 10–160 μM
Procedure: (§1) Thioflavin T is widely used to visualize and quantify the presence of misfolded amyloid protein aggregates in vitro [59]. […] In addition, DPPH radical (Sigma-Aldrich) was used to assay the free radical scavenging capacity of kaempferol, LM-031 and analogs (10–160 μM) as stated.

Aβ42 peptide = target: T1, Aβ42 peptide (Homo sapiens, UniProt P05067); assay: Thioflavin T Aβ aggregation inhibition assay; format: biochemical; details: Aβ42, compounds 5–20 μM
T1 construct: assessed by using Aβ42 peptide (AnaSpec, Fremont, CA, USA); purchased AnaSpec
Procedure: as §1

Aβ-GFP SH-SY5Y cells [2] = assay: Aβ folding reporter GFP fluorescence; format: cell-based, Human; details: for intensity of GFP fluorescence: untreated cells 100%; for EC50: Homo sapiens, 144 h, Aβ-GFP SH-SY5Y cells, compounds 1.2–5 μM, Dox 6 days, read-out: Aβ aggregation inhibition EC50 (GFP fluorescence)
Procedure: Human neuroblastoma SH-SY5Y-derived Aβ-GFP cells were maintained as stated. The recombinant Aβ-GFP protein has a 12 amino acid-containing linker between the fused Aβ and GFP. Doxycycline (5 μg/ml; Sigma-Aldrich) was used to induce Aβ-GFP expression.
Neuronal differentiation of Aβ-GFP SH-SY5Y cells was induced by retinoic acid (10 μM; Sigma-Aldrich). Cells on 96-well plate (2.5 × 10^4/well) were seeded on day 1, pre-treated with test compounds (1.2–5 μM) plus induced Aβ-GFP expression (5 μg/ml doxycycline) on day 2, and stained with Hoechst 33342 (0.1 μg/ml; Sigma-Aldrich) on day 8 as stated. Cell images were then captured at 482 nm excitation/536 nm emission wavelengths (ImageXpress Micro Confocal high-content system) and analyzed (MetaXpress image acquisition and analysis software) (Molecular Devices, Sunnyvale, CA, USA). In addition, ROS was quantified on day 8 following CellROX Deep Red stain (5 μM; Molecular Probes, Waltham, MA, USA) using the high-content system with excitation/emission wavelengths of 644/665 nm.

Aβ-GFP SH-SY5Y cells [3] = assay: Neurite outgrowth analysis; format: cell-based, Human; details: 5 μM; induced untreated 3.0, uninduced 3.9
Procedure: (§2) As stated, Aβ-GFP SH-SY5Y cells were seeded (6 × 10^4/24-well) with retinoic acid addition on day 1, treated with tested compounds (5 μM) plus induced Aβ-GFP expression (5 μg/ml doxycycline) on day 2, and stained with TUBB3 (tubulin beta 3 class III) primary antibody (1:1000; Covance #MMS-435P, Princeton, NJ, USA), goat anti-rabbit Alexa Fluor® 555 secondary antibody (1:1000; Thermo Fisher Scientific #A27039), and DAPI (4′-6-diamidino-2-phenylindole, 0.1 μg/ml; Sigma-Aldrich) on day 8 [60]. Neuronal pictures were taken using the high-content system and analyzed for neurite length (μm), process (number of neurites protruding from neuronal cell body) and branch (number of neurites extending from process) (MetaXpress neurite outgrowth application module; Molecular Devices). In each of three independent experiments, roughly 6000 cells from each sample were examined.

Aβ-GFP SH-SY5Y cells [4] = assay: TRKB RNA interference, neurite outgrowth; format: cell-based, Human; details: 5 μM
Procedure: as §2
To knock down TRKB expression in Aβ-GFP SH-SY5Y cells, lentiviral short hairpin RNA (shRNA) targeting TRKB and control (scrambled) were used. Cells were plated in the presence of retinoic acid (5 × 10^5/6-well for protein analysis or 6 × 10^4/24-well for neurite outgrowth analysis) on day 1, infected with lentivirus on day 2, pretreated with test compound (5 μM) plus inducing Aβ-GFP expression on day 3, and collected for neurite outgrowth or TRKB protein analysis on day 9 as stated.

[5] = design: method as in PMID 32496635; details: cited from earlier work
Aβ-GFP SH-SY5Y cells [6] = assay: ERK/PI3K kinase inhibitor treatment, immunoblot of TRKB downstream targets; format: cell-based, Human
Procedure: Cells were plated in the presence of retinoic acid (5 × 10^5/6-well) on day 1, treated with tested compounds (5 μM) plus induced Aβ-GFP expression with doxycycline (5μg/ml) on day 2, as stated. Kinase inhibitors U0126 (an inhibitor of ERK) or wortmannin (an inhibitor of PI3K) (LC Laboratories, Woburn, MA, USA) (10 μM) were added on day 6. The cells were collected on day 8 for BDNF, BCL2, BAX, total/phosphorylated TRKB, ERK, AKT, and CREB protein analysis as previously stated.
(§3) Total proteins from Aβ-GFP SH-SY5Y cells were prepared, quantified, electrophoretically separated and blotted as stated. Following blocking, the membrane was probed with antibody against BDNF (1:500; Santa Cruz Biotechnology #sc-546, Santa Cruz, CA, USA), BCL2 (1:200; Santa Cruz Biotechnology #sc-7382), BAX (1:200; Santa Cruz Biotechnology #sc-7480), TRKB (1:500; Cell Signaling Technology #4603, Danvers, MA, USA), p-TRKB (Y516) (1:200; GeneTex #GTX32230, Irvine, CA, USA), p-TRKB (Y816) (1:1000; Millipore #ABN1381, Billerica, MA, USA), ERK (1:1000; Cell Signaling Technology #9102), p-ERK (T202/Y204) (1:1000; Cell Signaling Technology #9101), AKT (1:1000; Abcam #ab126811, Cambridge, CB, UK), p-AKT (S473) (1:1000; Cell Signaling Technology #4060), CREB (1:500; Santa Cruz Biotechnology #sc-186), p-CREB (S133) (1:1000; Millipore #06-519), or loading control GAPDH (glyceraldehyde-3-phosphate dehydrogenase) (1:1000; MDBio #30000002, Taipei, Taiwan). The immune complexes were detected as stated.

Aβ-GFP SH-SY5Y cells [7] = assay: as above; format: cell-based, Human; details: 5 μM; induced untreated 61–64%
Aβ-GFP SH-SY5Y cells [8] = assay: Comparison of BDNF and LMDS compounds on TRKB signaling, immunoblot; format: cell-based, Human; details: for p-CREB: induced untreated 42%; for p-ERK: induced untreated 64%; for p-AKT: induced untreated 65%
Procedure: as §3

[9] = 5 μM plus U0126 or wortmannin 10 μM
[10] = 5 μM, no kinase inhibitor, induced untreated 70–71%

T1 sequence (P05067 672-713 limits assumed): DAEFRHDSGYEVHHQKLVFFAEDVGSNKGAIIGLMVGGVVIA

CC(NC(C)(C)C)C(=O)c1cccc(Cl)c1 (stereo not shown) [Bupropion, bupropion, reference compound]
Papp at 18 h, 1 μM (in vitro; PAMPA): 17.1 ± 1.09 ×10⁻⁶ cm/s

O=c1ccc2ccccc2o1 [Coumarin, coumarin, reference compound]
EC50 [1]: 179 µM
EC50 (Aβ42 peptide): 25 µM
intensity of GFP fluorescence (Aβ-GFP SH-SY5Y cells [2]; 1.2–5 μM): 113–140%
EC50 (Aβ-GFP SH-SY5Y cells [2]): 9.8 µM

COc1cc(/C=C/C(=O)CC(=O)/C=C/c2ccc(O)c(OC)c2)ccc1O [Curcumin, curcumin, reference compound]
intensity of GFP fluorescence (Aβ-GFP SH-SY5Y cells [2]; 2.5–5 μM): 113–140%
EC50 (Aβ-GFP SH-SY5Y cells [2]): 6.1 µM
neurite process (Aβ-GFP SH-SY5Y cells [3]): 3.7–3.8

O=c1c(O)c(-c2ccc(O)cc2)oc2cc(O)cc(O)c12 [Kaempferol, kaempferol, reference compound]
EC50 [1]: 28 µM

O=C(c1ccccc1)c1cc2c(O)cccc2oc1=O [LM-031, 3-benzoyl-5-hydroxychromen-2-one]
neurite process (Aβ-GFP SH-SY5Y cells [4]; scrambled shRNA, induced untreated 2.6): 3.8
neurite process (Aβ-GFP SH-SY5Y cells [4]; shRNA targeting TRKB): 2.5
EC50 [1]: 104 µM
EC50 (Aβ42 peptide): 9 µM
intensity of GFP fluorescence (Aβ-GFP SH-SY5Y cells [2]; 1.2–5 μM): 111–149%
EC50 (Aβ-GFP SH-SY5Y cells [2]): 5.9 µM
neurite process (Aβ-GFP SH-SY5Y cells [3]): 3.7–3.8
Measured Pe ([5]; PAMPA-BBB): 4.80 ± 0.12 10^−6 cm/s
PAMPA-BBB classification ([5]; from Pe of ref 34): BBB^+ (high)

CCOc1ccc2cc(C(=O)c3ccccc3)c(=O)oc2c1 [LMDS-1]
p-ERK level (Aβ-GFP SH-SY5Y cells [6]; 5 μM plus U0126 10 μM): 38–43%
BAX (Aβ-GFP SH-SY5Y cells [6]; [9]): 152–191%
BCL2 (Aβ-GFP SH-SY5Y cells [6]; [9]): 80–121%
p-CREB (Aβ-GFP SH-SY5Y cells [6]; [9]): 52–84%
pro- and m-BDNF (Aβ-GFP SH-SY5Y cells [6]; [9]): 65–88%
BCL2 (Aβ-GFP SH-SY5Y cells [6]; 5 μM, induced untreated 44%): 156–199%
p-CREB (Aβ-GFP SH-SY5Y cells [6]; 5 μM, induced untreated 66%): 127–142%
pro- and m-BDNF (Aβ-GFP SH-SY5Y cells [6]; 5 μM, induced untreated 68–52%): 100–169%
BAX (Aβ-GFP SH-SY5Y cells [6]; 5 μM, induced untreated 225%): 121–130%
p-AKT level (Aβ-GFP SH-SY5Y cells [6]; [10]): 110–111%
p-ERK level (Aβ-GFP SH-SY5Y cells [6]; [10]): 115%
EC50 [1]: 117 µM
EC50 (Aβ42 peptide): < 5 µM
intensity of GFP fluorescence (Aβ-GFP SH-SY5Y cells [2]; 1.2–5 μM): 111–149%
EC50 (Aβ-GFP SH-SY5Y cells [2]): 6 µM
p-TRKB Y516 and Y817 (Aβ-GFP SH-SY5Y cells [7]): 113–123%
p-CREB (Aβ-GFP SH-SY5Y cells [8]; 5 μM): 85–97%
p-ERK (Aβ-GFP SH-SY5Y cells [8]; 5 μM): 94–111%
p-AKT (Aβ-GFP SH-SY5Y cells [8]; 5 μM): 115–118%
PAMPA-BBB classification (in vitro): BBB^+ (high)
Papp at 18 h, 1 μM (in vitro; PAMPA): 14.9 ± 3.61 ×10⁻⁶ cm/s

O=C(c1ccccc1)c1cc2ccc(O)cc2oc1=O [LMDS-2]
p-ERK level (Aβ-GFP SH-SY5Y cells [6]; 5 μM plus U0126 10 μM): 38–43%
BAX (Aβ-GFP SH-SY5Y cells [6]; [9]): 152–191%
BCL2 (Aβ-GFP SH-SY5Y cells [6]; [9]): 80–121%
p-CREB (Aβ-GFP SH-SY5Y cells [6]; [9]): 52–84%
pro- and m-BDNF (Aβ-GFP SH-SY5Y cells [6]; [9]): 65–88%
BCL2 (Aβ-GFP SH-SY5Y cells [6]; 5 μM, induced untreated 44%): 156–199%
p-CREB (Aβ-GFP SH-SY5Y cells [6]; 5 μM, induced untreated 66%): 127–142%
pro- and m-BDNF (Aβ-GFP SH-SY5Y cells [6]; 5 μM, induced untreated 68–52%): 100–169%
BAX (Aβ-GFP SH-SY5Y cells [6]; 5 μM, induced untreated 225%): 121–130%
p-AKT level (Aβ-GFP SH-SY5Y cells [6]; [10]): 110–111%
p-ERK level (Aβ-GFP SH-SY5Y cells [6]; [10]): 115%
EC50 [1]: 146 µM
EC50 (Aβ42 peptide): 18 µM
intensity of GFP fluorescence (Aβ-GFP SH-SY5Y cells [2]; 1.2–5 μM): 111–149%
EC50 (Aβ-GFP SH-SY5Y cells [2]): 7.5 µM
p-TRKB Y516 and Y817 (Aβ-GFP SH-SY5Y cells [7]): 113–123%
p-CREB (Aβ-GFP SH-SY5Y cells [8]; 5 μM): 85–97%
p-ERK (Aβ-GFP SH-SY5Y cells [8]; 5 μM): 94–111%
p-AKT (Aβ-GFP SH-SY5Y cells [8]; 5 μM): 115–118%
PAMPA-BBB classification (in vitro): BBB^+ (moderate)
Papp at 18 h, 1 μM (in vitro; PAMPA): 3.81 ± 0.13 ×10⁻⁶ cm/s

COc1ccc2cc(C(=O)c3ccccc3)c(=O)oc2c1 [LMDS-3]
EC50 [1]: 167 µM
EC50 (Aβ42 peptide): 14 µM
intensity of GFP fluorescence (Aβ-GFP SH-SY5Y cells [2]; 2.5–5 μM): 111–149%
EC50 (Aβ-GFP SH-SY5Y cells [2]): 11 µM
PAMPA-BBB classification (in vitro): BBB^+ (high)
Papp at 18 h, 1 μM (in vitro; PAMPA): 11.8 ± 4.11 ×10⁻⁶ cm/s

CC(=O)Oc1ccc2cc(C(=O)c3ccccc3)c(=O)oc2c1 [LMDS-4]
EC50 [1]: 116 µM
EC50 (Aβ42 peptide): < 5 µM
intensity of GFP fluorescence (Aβ-GFP SH-SY5Y cells [2]; 1.2–5 μM): 111–149%
EC50 (Aβ-GFP SH-SY5Y cells [2]): 7.2 µM
recovery at 18 h, 1 µM (in vitro; PAMPA): 12.7%

CN1C(C(=O)Nc2ccccn2)=C(O)c2ccccc2S1(=O)=O [Piroxicam, piroxicam, reference compound]
Papp at 18 h, 1 μM (in vitro; PAMPA): 1.65 ± 0.17 ×10⁻⁶ cm/s

lucifer yellow [reference compound]
% transport (in vitro; PAMPA): 0.00 (% Transport)

B1: BDNF: Brain-derived neurotrophic factor, a neurotrophic factor binding TRKB (protein, UniProt P23560 19-247, looked up)
Neurotrophic factor BDNF …: APMKEANIRGQGGLAYPGVRTHGTLESVNGPKAGSRGLTSLADTFEHVIEELLDEDQKVRPNEENNKDADLYTSRVMLSSQVPLEPPLLFLLEEYKNYLDAANMSMRVRRHSDPARRGELSVCDSISEWVTAADKKTAVDMSGGTVTVLEKVPVSKGQLKQYFYETKCNPMGYTKEGCRGIDKRHWNSQCRTTQSYVRALTMDSKKRIGWRFIRIDTSCVCTLTIKRGR
p-CREB (Aβ-GFP SH-SY5Y cells [8]; 100 ng/ml): 85–97%
p-ERK (Aβ-GFP SH-SY5Y cells [8]; 100 ng/ml): 94–111%
p-AKT (Aβ-GFP SH-SY5Y cells [8]; 100 ng/ml): 115–118%
